Calls of active or inactive are those of the source. No cut-off for these calls is given here.
Columns and labels:
[1] = target: Mitogen-activated protein kinase kinase kinase kinase 5 (Homo sapiens) (UniProt Q9Y4K4); settings: Compound concentration 1000.0 nM
[2] = target: Serine/threonine-protein kinase 35 (Homo sapiens) (UniProt Q8TDR2); settings: Compound concentration 1000.0 nM
[3] = target: T1, Serine/threonine-protein kinase ICK (Homo sapiens) (UniProt Q9UPZ9); settings: Compound concentration 1000.0 nM
T1 sequence (whole entry): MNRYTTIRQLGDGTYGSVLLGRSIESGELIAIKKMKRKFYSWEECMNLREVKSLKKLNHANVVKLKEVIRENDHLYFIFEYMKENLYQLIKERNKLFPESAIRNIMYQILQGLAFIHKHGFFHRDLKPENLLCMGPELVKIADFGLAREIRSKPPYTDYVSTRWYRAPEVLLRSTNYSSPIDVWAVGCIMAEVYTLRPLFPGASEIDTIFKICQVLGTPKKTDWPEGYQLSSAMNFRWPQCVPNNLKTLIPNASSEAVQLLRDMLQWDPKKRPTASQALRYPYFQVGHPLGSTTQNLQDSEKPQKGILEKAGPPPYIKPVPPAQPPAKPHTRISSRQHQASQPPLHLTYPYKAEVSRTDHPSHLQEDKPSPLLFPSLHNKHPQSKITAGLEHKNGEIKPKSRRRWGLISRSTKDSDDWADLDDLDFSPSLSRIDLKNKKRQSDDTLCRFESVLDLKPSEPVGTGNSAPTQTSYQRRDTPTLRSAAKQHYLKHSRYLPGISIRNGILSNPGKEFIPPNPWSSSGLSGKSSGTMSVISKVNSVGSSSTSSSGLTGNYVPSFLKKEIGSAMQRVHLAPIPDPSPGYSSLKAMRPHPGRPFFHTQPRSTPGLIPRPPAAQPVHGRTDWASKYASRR

[4] = test system: Phosphatidylinositol 4,5-bisphosphate 3-kinase catalytic subunit alpha isoform (Homo sapiens), P42336 [H1047L]; settings: Compound concentration 1000.0 nM
[5] = target: Mitogen-activated protein kinase 9 (Homo sapiens) (UniProt P45984); settings: Compound concentration 1000.0 nM
[6] = test system: Phosphatidylinositol 4,5-bisphosphate 3-kinase catalytic subunit alpha isoform (Homo sapiens), P42336 [M1043I]; settings: Compound concentration 1000.0 nM
[7] = target: Leukocyte tyrosine kinase receptor (Homo sapiens) (UniProt P29376); settings: Compound concentration 1000.0 nM
Sequence of Leukocyte tyrosine kinase receptor (Homo sapiens) (P29376 whole entry): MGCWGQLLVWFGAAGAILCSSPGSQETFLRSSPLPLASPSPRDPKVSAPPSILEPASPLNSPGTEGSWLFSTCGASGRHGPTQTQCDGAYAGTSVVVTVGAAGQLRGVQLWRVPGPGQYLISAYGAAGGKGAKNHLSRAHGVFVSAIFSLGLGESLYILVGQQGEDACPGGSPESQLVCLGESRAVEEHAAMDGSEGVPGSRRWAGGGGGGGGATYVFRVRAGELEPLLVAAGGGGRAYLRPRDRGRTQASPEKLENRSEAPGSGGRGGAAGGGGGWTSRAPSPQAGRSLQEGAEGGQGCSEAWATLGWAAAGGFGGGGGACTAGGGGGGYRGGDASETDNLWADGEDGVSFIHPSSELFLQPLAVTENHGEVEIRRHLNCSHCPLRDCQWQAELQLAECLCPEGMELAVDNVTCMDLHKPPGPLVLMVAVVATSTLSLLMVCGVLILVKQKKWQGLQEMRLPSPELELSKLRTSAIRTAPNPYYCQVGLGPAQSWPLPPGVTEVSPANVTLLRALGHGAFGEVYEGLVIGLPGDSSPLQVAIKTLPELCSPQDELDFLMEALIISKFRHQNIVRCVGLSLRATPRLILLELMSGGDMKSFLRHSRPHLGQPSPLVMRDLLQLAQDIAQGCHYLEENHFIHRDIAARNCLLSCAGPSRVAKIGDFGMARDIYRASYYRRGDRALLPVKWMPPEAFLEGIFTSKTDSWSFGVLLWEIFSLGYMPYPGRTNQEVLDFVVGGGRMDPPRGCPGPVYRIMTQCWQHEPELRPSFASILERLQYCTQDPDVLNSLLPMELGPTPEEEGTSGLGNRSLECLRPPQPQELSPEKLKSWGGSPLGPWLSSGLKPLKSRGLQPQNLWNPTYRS

[8] = target: Serine/threonine-protein kinase MARK1 (Homo sapiens) (UniProt Q9P0L2); settings: Compound concentration 1000.0 nM
[9] = target: Serine/threonine-protein kinase 26 (Homo sapiens) (UniProt Q9P289); settings: Compound concentration 1000.0 nM
Sequence of Serine/threonine-protein kinase 26 (Homo sapiens) (Q9P289 2-416 limits assumed): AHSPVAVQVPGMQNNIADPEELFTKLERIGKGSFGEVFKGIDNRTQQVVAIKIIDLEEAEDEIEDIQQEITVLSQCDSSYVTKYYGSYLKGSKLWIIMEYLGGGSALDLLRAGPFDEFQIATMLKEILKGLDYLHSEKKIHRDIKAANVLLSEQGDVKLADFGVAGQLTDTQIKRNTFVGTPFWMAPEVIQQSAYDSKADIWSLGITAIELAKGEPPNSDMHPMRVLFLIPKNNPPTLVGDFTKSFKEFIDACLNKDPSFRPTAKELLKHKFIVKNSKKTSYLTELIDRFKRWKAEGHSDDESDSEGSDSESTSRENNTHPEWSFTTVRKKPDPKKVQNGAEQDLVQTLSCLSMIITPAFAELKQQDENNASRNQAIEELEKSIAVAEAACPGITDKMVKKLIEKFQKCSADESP

[10] = target: Ribosomal protein S6 kinase alpha-3 (Homo sapiens, UniProt P51812); settings: Compound concentration 1000.0 nM
[11] = target: Ribosomal protein S6 kinase alpha-1 (Homo sapiens, UniProt Q15418); settings: Compound concentration 1000.0 nM
Sequence of Ribosomal protein S6 kinase alpha-1 (Q15418 whole entry): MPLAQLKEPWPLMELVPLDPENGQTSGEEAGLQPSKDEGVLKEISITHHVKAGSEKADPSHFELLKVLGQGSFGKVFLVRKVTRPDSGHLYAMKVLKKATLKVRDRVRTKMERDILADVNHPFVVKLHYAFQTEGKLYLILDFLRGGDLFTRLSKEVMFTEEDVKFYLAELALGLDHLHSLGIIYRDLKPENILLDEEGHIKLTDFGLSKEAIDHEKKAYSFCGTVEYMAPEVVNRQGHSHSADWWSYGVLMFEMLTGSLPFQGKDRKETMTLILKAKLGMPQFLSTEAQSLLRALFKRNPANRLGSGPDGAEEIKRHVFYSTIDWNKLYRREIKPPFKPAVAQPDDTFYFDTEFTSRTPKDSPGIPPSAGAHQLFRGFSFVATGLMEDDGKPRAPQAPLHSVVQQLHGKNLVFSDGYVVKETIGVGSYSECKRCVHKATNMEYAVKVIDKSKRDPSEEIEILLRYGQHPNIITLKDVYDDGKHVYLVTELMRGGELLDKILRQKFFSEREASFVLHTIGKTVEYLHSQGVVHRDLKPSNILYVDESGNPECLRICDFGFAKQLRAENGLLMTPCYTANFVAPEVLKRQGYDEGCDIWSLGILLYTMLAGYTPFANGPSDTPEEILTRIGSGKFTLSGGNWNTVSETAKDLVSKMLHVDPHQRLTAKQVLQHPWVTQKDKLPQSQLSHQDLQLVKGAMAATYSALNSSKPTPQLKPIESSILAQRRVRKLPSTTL

[12] = target: Death-associated protein kinase 3 (Homo sapiens) (UniProt O43293); settings: Compound concentration 1000.0 nM
Sequence of Death-associated protein kinase 3 (Homo sapiens) (O43293 whole entry, looked up): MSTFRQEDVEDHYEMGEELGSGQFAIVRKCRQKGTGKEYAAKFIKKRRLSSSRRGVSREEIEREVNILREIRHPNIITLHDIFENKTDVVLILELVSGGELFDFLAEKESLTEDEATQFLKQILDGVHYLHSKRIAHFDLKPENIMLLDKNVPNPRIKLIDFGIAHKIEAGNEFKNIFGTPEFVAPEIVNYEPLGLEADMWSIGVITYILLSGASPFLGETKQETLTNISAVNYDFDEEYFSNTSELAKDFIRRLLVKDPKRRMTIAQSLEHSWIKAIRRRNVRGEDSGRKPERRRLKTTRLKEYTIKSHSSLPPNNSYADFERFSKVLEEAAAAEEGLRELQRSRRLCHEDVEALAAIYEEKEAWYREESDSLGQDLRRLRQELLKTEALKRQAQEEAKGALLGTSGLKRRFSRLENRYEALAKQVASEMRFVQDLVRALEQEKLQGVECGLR

[13] = target: Ephrin type-A receptor 5 (Homo sapiens) (UniProt P54756); settings: Compound concentration 1000.0 nM
[14] = target: Tyrosine-protein kinase Blk (Homo sapiens) (UniProt P51451); settings: Compound concentration 1000.0 nM
[15] = target: BMP-2-inducible protein kinase (Homo sapiens) (UniProt Q9NSY1); settings: Compound concentration 1000.0 nM
[16] = target: T2, Aurora kinase A (Homo sapiens) (UniProt O14965); settings: Compound concentration 1000.0 nM
T2 sequence (whole entry): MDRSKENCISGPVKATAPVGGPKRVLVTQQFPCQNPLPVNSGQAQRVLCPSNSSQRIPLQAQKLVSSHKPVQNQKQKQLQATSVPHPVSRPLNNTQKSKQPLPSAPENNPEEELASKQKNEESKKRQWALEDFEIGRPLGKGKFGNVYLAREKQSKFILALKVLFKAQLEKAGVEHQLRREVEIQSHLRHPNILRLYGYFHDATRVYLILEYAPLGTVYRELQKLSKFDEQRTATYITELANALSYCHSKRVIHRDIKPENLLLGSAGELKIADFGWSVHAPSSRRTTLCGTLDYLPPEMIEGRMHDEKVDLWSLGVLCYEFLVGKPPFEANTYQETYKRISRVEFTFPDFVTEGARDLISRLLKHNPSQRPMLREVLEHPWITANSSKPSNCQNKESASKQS

[17] = target: Serine/threonine-protein kinase RIO2 (Homo sapiens) (UniProt Q9BVS4); settings: Compound concentration 1000.0 nM
[18] = target: G protein-coupled receptor kinase 4 (Homo sapiens) (UniProt P32298); settings: Compound concentration 1000.0 nM
Sequence of G protein-coupled receptor kinase 4 (Homo sapiens) (P32298 whole entry, looked up): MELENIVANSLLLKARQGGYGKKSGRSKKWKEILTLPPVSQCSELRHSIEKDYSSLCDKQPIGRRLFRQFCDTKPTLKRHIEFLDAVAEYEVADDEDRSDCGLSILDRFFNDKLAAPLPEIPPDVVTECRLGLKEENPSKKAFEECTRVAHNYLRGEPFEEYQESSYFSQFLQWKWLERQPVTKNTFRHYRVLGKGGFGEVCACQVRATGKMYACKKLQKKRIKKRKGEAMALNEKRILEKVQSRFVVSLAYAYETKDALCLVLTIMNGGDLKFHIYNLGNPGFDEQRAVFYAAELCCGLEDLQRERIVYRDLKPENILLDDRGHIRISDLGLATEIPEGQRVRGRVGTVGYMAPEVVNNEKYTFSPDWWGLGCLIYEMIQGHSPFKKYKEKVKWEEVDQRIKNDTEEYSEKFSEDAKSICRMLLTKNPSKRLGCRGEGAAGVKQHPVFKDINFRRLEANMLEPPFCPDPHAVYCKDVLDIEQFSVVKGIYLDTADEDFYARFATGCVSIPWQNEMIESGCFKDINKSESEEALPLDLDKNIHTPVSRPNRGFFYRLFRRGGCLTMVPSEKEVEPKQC

[19] = target: Phosphatidylinositol 5-phosphate 4-kinase type-2 beta (Homo sapiens) (UniProt P78356); settings: Compound concentration 1000.0 nM
[20] = target: Citron Rho-interacting kinase (Homo sapiens) (UniProt O14578); settings: Compound concentration 1000.0 nM
[21] = target: Insulin-like growth factor 1 receptor (Homo sapiens) (UniProt P08069); settings: Compound concentration 1000.0 nM
[22] = target: Ribosomal protein S6 kinase alpha-5 (Homo sapiens, UniProt O75582); settings: Compound concentration 1000.0 nM
[23] = target: Calcium/calmodulin-dependent protein kinase type II subunit delta (Homo sapiens) (UniProt Q13557); settings: Compound concentration 1000.0 nM
Sequence of Calcium/calmodulin-dependent protein kinase type II subunit delta (Homo sapiens) (Q13557 whole entry): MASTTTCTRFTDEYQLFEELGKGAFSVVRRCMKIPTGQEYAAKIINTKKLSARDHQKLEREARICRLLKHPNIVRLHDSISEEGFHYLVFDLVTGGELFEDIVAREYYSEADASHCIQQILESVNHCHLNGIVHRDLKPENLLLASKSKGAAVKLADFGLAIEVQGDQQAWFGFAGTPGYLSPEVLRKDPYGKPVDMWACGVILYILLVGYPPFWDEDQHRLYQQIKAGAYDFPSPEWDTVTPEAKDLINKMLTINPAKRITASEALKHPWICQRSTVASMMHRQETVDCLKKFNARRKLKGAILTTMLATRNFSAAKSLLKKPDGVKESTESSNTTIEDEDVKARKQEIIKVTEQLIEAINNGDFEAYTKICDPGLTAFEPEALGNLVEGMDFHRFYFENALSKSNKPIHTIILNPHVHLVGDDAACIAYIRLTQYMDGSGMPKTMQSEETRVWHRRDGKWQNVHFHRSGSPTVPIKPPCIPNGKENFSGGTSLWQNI

[24] = target: Ribosomal protein S6 kinase alpha-6 (Homo sapiens) (UniProt Q9UK32); settings: Compound concentration 1000.0 nM
[25] = target: Serine/threonine-protein kinase PknB (Mycobacterium tuberculosis) (UniProt P9WI81); settings: Compound concentration 1000.0 nM
[26] = target: 5'-AMP-activated protein kinase catalytic subunit alpha-1 (Homo sapiens, UniProt Q13131); assay: Biochemical PRKAA1 assay with 2 mM ATP (Bayer in house)
[27] = target: Activated CDC42 kinase 1 (Homo sapiens) (UniProt Q07912); settings: Compound concentration 1000.0 nM
[28] = target: AP2-associated protein kinase 1 (Homo sapiens) (UniProt Q2M2I8); settings: Compound concentration 1000.0 nM
[29] = test system: Receptor-type tyrosine-protein kinase FLT3 (Homo sapiens), P36888 [K663Q]; settings: Compound concentration 1000.0 nM
[30] = target: TRAF2 and NCK-interacting protein kinase (Homo sapiens) (UniProt Q9UKE5); settings: Compound concentration 1000.0 nM

Sequence of Serine/threonine-protein kinase 35 (Homo sapiens) (Q8TDR2 whole entry): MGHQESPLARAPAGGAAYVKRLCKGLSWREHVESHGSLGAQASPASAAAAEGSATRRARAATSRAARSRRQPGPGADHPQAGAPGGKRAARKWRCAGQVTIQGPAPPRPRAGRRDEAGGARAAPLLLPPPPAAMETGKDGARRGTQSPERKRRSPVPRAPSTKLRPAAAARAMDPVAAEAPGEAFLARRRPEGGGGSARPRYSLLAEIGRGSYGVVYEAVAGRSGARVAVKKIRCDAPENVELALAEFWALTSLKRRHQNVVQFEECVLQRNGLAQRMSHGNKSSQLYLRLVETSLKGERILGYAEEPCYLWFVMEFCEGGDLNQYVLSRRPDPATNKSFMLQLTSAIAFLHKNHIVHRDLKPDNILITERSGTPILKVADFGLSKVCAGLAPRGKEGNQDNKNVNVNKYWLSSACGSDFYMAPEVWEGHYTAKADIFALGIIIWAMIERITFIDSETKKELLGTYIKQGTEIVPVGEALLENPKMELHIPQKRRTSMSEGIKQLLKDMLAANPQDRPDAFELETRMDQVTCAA
Sequence of Mitogen-activated protein kinase kinase kinase kinase 5 (Homo sapiens) (Q9Y4K4 whole entry, looked up): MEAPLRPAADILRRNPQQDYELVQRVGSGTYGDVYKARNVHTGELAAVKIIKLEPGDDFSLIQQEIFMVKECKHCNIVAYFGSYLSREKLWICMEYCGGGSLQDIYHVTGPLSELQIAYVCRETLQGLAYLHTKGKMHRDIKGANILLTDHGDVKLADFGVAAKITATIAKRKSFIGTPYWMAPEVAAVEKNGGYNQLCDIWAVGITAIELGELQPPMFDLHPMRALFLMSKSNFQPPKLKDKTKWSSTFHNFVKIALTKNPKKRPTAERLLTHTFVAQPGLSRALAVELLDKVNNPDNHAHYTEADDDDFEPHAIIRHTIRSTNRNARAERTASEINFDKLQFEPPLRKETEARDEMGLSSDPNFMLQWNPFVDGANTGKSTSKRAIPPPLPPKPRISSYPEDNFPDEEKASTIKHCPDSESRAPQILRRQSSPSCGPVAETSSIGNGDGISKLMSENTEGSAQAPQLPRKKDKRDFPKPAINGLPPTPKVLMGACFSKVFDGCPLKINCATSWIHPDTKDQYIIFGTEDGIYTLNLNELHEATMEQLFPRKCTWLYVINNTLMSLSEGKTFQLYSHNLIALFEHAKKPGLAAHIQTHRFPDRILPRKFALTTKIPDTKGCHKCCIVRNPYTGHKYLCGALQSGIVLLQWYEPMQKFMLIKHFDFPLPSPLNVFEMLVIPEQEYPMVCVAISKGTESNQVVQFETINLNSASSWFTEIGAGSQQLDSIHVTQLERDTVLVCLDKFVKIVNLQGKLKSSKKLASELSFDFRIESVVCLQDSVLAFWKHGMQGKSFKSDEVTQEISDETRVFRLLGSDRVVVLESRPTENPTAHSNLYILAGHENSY

SMILES | residual activity [1] [%] | residual activity [2] [%] | residual activity [3] [%] | residual activity [4] [%] | residual activity [5] [%] | residual activity [6] [%] | residual activity [7] [%] | residual activity [8] [%] | residual activity [9] [%] | residual activity [10] [%] | residual activity [11] [%] | residual activity [12] [%] | residual activity [13] [%] | residual activity [14] [%] | residual activity [15] [%] | residual activity [16] [%] | residual activity [17] [%] | residual activity [18] [%] | residual activity [19] [%] | residual activity [20] [%] | further results
CCc1ccccc1C(=O)Nc1n[nH]c2c(C)c(F)c(C3C(C#N)=C(C)N(C)C(C)=C3C#N)cc12 [BAY-3827] | 100 | 100 | 100 | 100 | 67 | 75 | 94 | 36 | 98 | 0.3 | 1.8 | 71 | 87 | 100 | 100 | 51 | 93 | 100 | 91 | 90 | residual activity [21]: 87%; residual activity [22]: 1%; residual activity [23]: 78%; residual activity [24]: 100%; residual activity [25]: 85%; IC50 [26]: 0.015 µM (active); residual activity [27]: 81%; residual activity [28]: 81%; residual activity [29]: 13%; residual activity [30]: 78%
CC1=C(C#N)C(c2ccc3c(c2)c(NC(=O)c2ccccc2C)nn3C)C(C#N)=C(C)N1 [BAY-974] | 100 | 86 | 97 | 100 | 73 | 100 | 70 | 100 | 100 | 86 | 100 | 88 | 77 | 82 | 100 | 61 | 65 | 100 | 83 | 55 | residual activity [21]: 96%; residual activity [22]: 91%; residual activity [23]: 100%; residual activity [24]: 83%; residual activity [25]: 97%; IC50 [26]: > 20 µM (not active); residual activity [27]: 86%; residual activity [28]: 90%; residual activity [29]: 100%; residual activity [30]: 98%

From ChEMBL document CHEMBL4507319 (2021)
